Test results from patent publication US6951887B2 (The Research Foundation of State University of New York, priority 1998, dated 2005).

Key:
[1] = system: B-16 melanoma; experiment: B-16 system, subcutaneous tumors; format: in vivo, mouse; conditions: 50 mg/kg IP twice daily plus twice daily injection directly into the tumor mass
Description: (§1) The B-16 melanoma strain was introduced either subcutaneously or intraperitoneally into individuals of the C57/BL syngeneic mouse strain (7). When left untreated such mice develop massive tumors in the immediate area of injection as well as secondary metastases throughout the animal—including in the liver and the lungs. These malignant growths result in the early death of the animals. Moreover, the resulting malignant growths are made up of darkly pigmented malignant melanocytes—making their assessment convenient and highly reliable. We will henceforth refer to this as the “B-16 system”.
Second, a group of animals were injected at a subcutaneous site with B-16 cells. […] As this time, one group oL animals (experimentals) began a twice-daily series of injections of the bis-acetyl lipoate derivative (100 mg/kg in 100 ul of isotonic saline) and a second set (controls) of corresponding injections of the saline solvent alone. [See EXAMPLES 2, 8 and 11 for the details of bis-acetyl lipoate derivative.]
Third, in several animals subcutaneous tumors were produced as in the preceding paragraph. After the tumors had grown to visible, palpable size, these animals received both a twice daily IP (systemic) dose of 50 mg/kg of bis-benzoyl lipoate as well as a twice daily direct injection a second dose of the same volume directly into the tumor mass.

[2] = system: HeLa (Cervix); experiment: killing of cultured cells, HeLa; format: cell-based; parameters: key to cells killed by treatment: “+” indicates that the cells were killed by treatment; “−” indicates that they were not; “+/−” indicates a slow marginal response seen only in a few special cases with fibroblasts experimentally transformed by introduction of the ras oncogene
Description: (§2) Table 1: Summarized are the responses of cells in culture to killing by example members of the family of blocked lipoate derivatives that are the object of this invention as well as one control compound (dihydroxyoctanoic acid). At right is indicated the specific cell line followed by the tissue of origin of the cell line. Across the top are listed the specific compounds tested. Each blocked lipoate derivative was used at two to fourfold above its threshold killing concentration. [These concentrations range form 0.15 mM (60 ug/ml or 60 mg/kg) to 2.5 mM (800 ug/ml or 800 mg/kg) (see EXAMPLE 11).] […] “+/−” indicates a slow marginal response seen only in a few special cases with fibroblasts experimentally transformed by introduction of the ras oncogene (EXAMPLE 10).
(§3) First, each cell type to be tested was plated at low densities in the wells of a standard 6×24 well tissue culture plate. (Multiple wells are seeded for each cell type.)
(§4) Second, the cells were allowed to grow to moderate densities. Transformed cells are in contact and non-transformed cells are contact-inhibited under these conditions.
(§5) Third, the lipoate derivatives to be tested were added to individual wells. In these experiments each compound was added at two to fourfold above the threshold killing concentration for cancer cells (EXAMPLE 11).
(§6) Fourth, cells were monitored over the next several days.

[3] = nonspecific toxicity by intraperitoneal injection; conditions: C57/BL, mouse, in vivo, ip
Experimental: (§7) (All studies described in this section were carried out by intraperitoneal (IP) injection into C57/BL mice.)

[4] = system: C57/BL mice; experiment: nonspecific toxicity by intraperitoneal injection; conditions: mouse, in vivo, ip
Experimental: as §7

[5] = system: MDCK (Kidney); experiment: killing of cultured cells, MDCK; format: cell-based; conditions: 120 ug/ml, ca. 48 hours
Description: as §2, §3, §4, §5, §6

[6] = system: B-16 melanoma; experiment: B-16 system, cells injected IP; format: in vivo, mouse; conditions: 100 mg/kg IP twice a day, 16 days, B-16 cells IP in C57/BL mice
Description: as §1
First, a group of mice were injected IP with B-16 cells. The injected group was divided at random into two equal subsets. One subset (experimental) was injected IP twice a day with 100 mg/kg of the bis-benzoyl lipoate member of the compound class in 200 ul of 10% ethanol. [See EXAMPLES 3, 8 and 11 for descriptions of bis-benzoyl lipoate.] The second subset (control) was injected with 200 ul of 10% ethanol alone.
After 16 days, the animals were examined—including by dissection where appropriate. The control animals had numerous, massive IP tumor masses.

[7] = system: RD (Embryo); experiment: killing of cultured cells, RD; format: cell-based; parameters: key to cells killed by treatment: “+” indicates that the cells were killed by treatment; “−” indicates that they were not; “+/−” indicates a slow marginal response seen only in a few special cases with fibroblasts experimentally transformed by introduction of the ras oncogene
Description: as §2, §3, §4, §5, §6

[8] = system: SW480 (Colon); experiment: killing of cultured cells, SW480; format: cell-based; parameters: key: “+” indicates that the cells were killed by treatment; “−” indicates that they were not; “+/−” indicates a slow marginal response seen only in a few special cases with fibroblasts experimentally transformed by introduction of the ras oncogene; conditions: compound at two to fourfold above its threshold killing concentration
Description: as §2, §3, §4, §5, §6

[9] = system: NIH 3T3 ras transformed; experiment: killing of cultured cells, ras-transformed NIH 3T3 (T24); format: cell-based; parameters: key to cells killed by treatment: “+” indicates that the cells were killed by treatment; “−” indicates that they were not; “+/−” indicates a slow marginal response seen only in a few special cases with fibroblasts experimentally transformed by introduction of the ras oncogene
Description: as §2, §3, §4, §5, §6
NIH-3T3 cells are relatively normal, noncancerous cells. However, if an activated allele of the ras oncogene is introduced into these cells they become highly malignant (cancerous) as assessed by several assays (REFERENCE).

O=C(O)CCCCC(CCSC(=O)c1ccccc1)SC(=O)c1ccccc1 (stereo not shown) [bis-benzoyl lipoate, 6,8-bisbenzoylmercaptooctanoic acid]
response of subcutaneous tumor [1]: especially robust response | cells killed by treatment ([2]; Cervix, compound at two to fourfold above its threshold killing concentration): + | time by which all cancer cells are killed ([2]; conditions of FIG. 3): 48 to 60 h | LD50 [3]: ~1000 mg/kg | maximum well-tolerated dose [4]: ca. 500 mg/kg | effect on normal (non-cancerous) kidney epithelial cell line (FIG. 1) [5]: not detectably affected | tumor mass relative to the control sample [6]: 30-50% | cell killing, embryonic cancer cells (FIG. 1) ([7]; 120 ug/ml, ca. 48 hours): efficiently killed | cells killed by treatment ([7]; RD, Embryo, compound at two to fourfold above its threshold killing concentration): + | cells killed by treatment [8]: + | cancerous (transformed) cells killed (FIG. 2) ([9]; 120 ug/ml, 24 hours of treatment, T24 ras-transformed NIH3T3): ca. 50% | killing of transformed cells (FIG. 2) ([9]; 120 ug/ml, ca. 48 hours of treatment): almost entirely irradicated | cells killed by treatment ([9]; NIH 3T3 ras transformed, compound at two to fourfold above its threshold killing concentration): +
